Molecules are shown by their SMILES.

The term IC50 denotes the concentration that inhibits the measured activity by half.

Type in all cases: cell-based
The subject of data set [1] is SW620, PC-3, and NCI-H23 cell lines. Briefly: Cytotoxicity, summary statements over three human cancer cell lines. The conditions noted are these: SW620, PC-3, NCI-H23. The source says: Three human cancer cell lines: colon cancer (SW620), prostate cancer (PC3), and lung cancer (NCI-H23) were used for sceening the cytotoxicity of the compounds. The cancer cells were purchased from American Type Culture Collection (Manassas, VA, USA). Other reagents/media for cell culture were obtained from GIBCO (Grand Island, New York, USA). The testing cancer cells were culture in Dulbecco’s Modified Eagle Medium until confluence. Then, they were trypsinized and suspended at the level of 3 × 10^4 cells/mL of cell culture medium. On day 0, cancer cells were seeded at a volume of 180 µL/well of 96-well plates and incubated for 24 h at 37 °C in a 5% CO2 incubator. On day 1, 20 µL of various concentrations of testing compounds were added to each well of the 96-well plates. Chemicals were dissolved in dimethyl sulfoxide (DMSO, stock) and diluted in culture medium (1% DMSO) before adding to the culture. After 48 h incubation, the sulforhodamine B assay was used for cell density determination with slight modifications[22]–[26]. The Probits were used for the calculation of IC50 values. The reported IC50 were the averages of three independent screening (SD ≤ 10%)[27].
Overally, 5-fluorinated compounds (4i–p and 5d–f) were slightly more cytotoxic than non-fluorinated ones (4a–h, 5a–c). […]

A short description of data set [2]: Cytotoxicity on normal mesenchymal stem cells. The conditions noted are these: human bone marrow-derived mesenchymal stem cells; mean ± SEM; read-out: Cytotoxicity (IC50) MSCs.
Data set [3] relates to SW620 (colon cancer). Kind of data set: SRB cytotoxicity assay, SW620. The conditions noted are these: Homo sapiens, SW-620, 48 h incubation, mean ± SEM of 3 independent experiments. The procedure, abridged: (§1)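 Cells in DMEM were seeded at 3 × 10^4 cells/mL and preincubated 24 h at 37 °C, 5% CO2. Compounds were added in medium at 1% DMSO for 48 h. Cell density was read by sulforhodamine B staining, with IC50 by probit analysis as the mean of three independent screens.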
Background: Sulforhodamine B stains cellular protein and so reports cell mass.

Data set [4] has as its system PC3 (prostate cancer). Kind of data set: SRB cytotoxicity assay, PC3. The conditions noted are these: Homo sapiens, 48 h incubation, mean ± SEM of 3 independent experiments. An outline of the steps: as §1
In data set [5] the test system is NCI-H23 (lung cancer). Kind of data set: SRB cytotoxicity assay, NCI-H23. The conditions noted are these: Homo sapiens, 48 h incubation, mean ± SEM of 3 independent experiments. An outline of the steps:
as §1

As for `COc1ccc(/C=N/NC(=O)CN2C(=O)Cc3cc(F)ccc32)c(O)c1` [Compound 4o, (E)-N'-(2-Hydroxy-4-methoxybenzylidene)-2-(5-fluoro-2-oxoindolin-1-yl)acetohydrazide], in data set [1], the “IC50 values relative to PAC-1” value is given as “three- to five-fold lower”. In addition, the IC50 in data set [2] came to 12.8 ± 0.71 µM; in data set [3], 1.88 ± 0.02 µM; in data set [4] it was 1.83 ± 0.07 µM; in data set [5], 1 ± 0.01 µM.

(Values after article PMC8861050, “Design, synthesis and evaluation of novel 2-oxoindoline-based acetohydrazides as antitumor agents” (Scientific Reports, 2022).)
